Target: T1, KIAA1363 (AADACL1, NCEH1) (Homo sapiens, UniProt Q6PIU2)
T1 sequence (Q6PIU2 1-408): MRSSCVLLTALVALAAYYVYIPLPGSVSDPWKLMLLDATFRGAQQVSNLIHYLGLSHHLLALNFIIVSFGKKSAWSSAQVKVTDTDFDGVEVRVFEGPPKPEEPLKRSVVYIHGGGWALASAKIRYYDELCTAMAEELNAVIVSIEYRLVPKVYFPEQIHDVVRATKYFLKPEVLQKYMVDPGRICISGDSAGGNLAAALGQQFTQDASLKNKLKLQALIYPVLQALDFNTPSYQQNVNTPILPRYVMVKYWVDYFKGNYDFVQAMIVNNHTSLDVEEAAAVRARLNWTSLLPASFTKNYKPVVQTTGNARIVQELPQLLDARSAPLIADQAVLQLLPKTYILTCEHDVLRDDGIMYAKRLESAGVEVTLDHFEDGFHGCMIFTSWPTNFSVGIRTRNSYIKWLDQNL
Test: competitive gel-based ABPP with FP-Rh in PC3 cells in situ
Format: cell-based

**Q.** With JW576 as the substance, how does the IC50 read?
**A.** Its IC50 is 340 ± 150 nM.

Reference: article PMC3425385 (2011)
